ChEMBL document CHEMBL1201862, “PubChem BioAssay data set” (2004)
Calls of active or inactive are those of the source.

Key:
[1] = luciferase reporter signal suppression in cells – H4 neuroglioma cells, luminescence, dose response (AID 1990); format: functional, cell-based
[2] = Luminescence Cell-Based Dose Response HTS to Identify Inhibitors of 5'UTR Stem-Loop Driven Prion Protein mRNA Translation in H4 Neuroglioblastoma Cells. [Related pubchem assays: 1827 (Project Summary), 1813 (Primary HTS)]; format: functional
[3] = alpha-synuclein stem-loop luciferase translation blockers – H4 neuroglioma cells, luminescence, confirmation (AID 1988); format: functional, cell-based
[4] = HEK-293T viability loss after treatment – luminescence, T-cell screen hits, cytotoxicity control for TCR NF-kB inhibitor project, dose response (AID 489026); format: functional, cell-based;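 further: cells exposed to compound about 14 hours before the viability readout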
P388/ADR = assay: cells; format: functional; conditions: Mus musculus
SN12K1 = assay: cells; format: functional; conditions: Homo sapiens
P388 = assay: cells; format: functional; conditions: Mus musculus
[5] = blockers of HIV-1 envelope-mediated cell-cell fusion – cherry-pick, dose response (AID 652057); format: functional, cell-based
[6] = HIV-1 AD8 envelope cell-cell fusion blockers – cherry-pick, dose response (AID 652062); format: functional, cell-based;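 further: luciferase signal from cell-cell fusion driven by HIV-1 clade B AD8 Env; potency is for inhibitors of fusion seen as a drop in luminescence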
Fatty acid synthase [7] = molecular target: T1, Fatty acid synthase (Homo sapiens, UniProt P49327); assay: inhibition of human FAS-TE enzyme activity – biochemical, endpoint fluorescence intensity, uHTS hits, dose response (AID 624327); format: functional;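 further: fluorescence from hydrolysis of an O-methyl fluorescein acyl ester substrate by the enzyme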
Fatty acid synthase [8] = molecular target: T1, Fatty acid synthase; assay: inhibition of human FAS-TE enzyme activity – biochemical, kinetic fluorescence intensity, dose response (AID 624326); format: functional;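 further: rate of fluorescence rise from hydrolysis of a fluorogenic O-methyl fluorescein ester substrate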
[9] = Trypanosoma cruzi growth suppression in host cells – NIH3T3 host cells, beta-gal luminescence, confirmation (AID 2044); format: functional, cell-based;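 further: intracellular parasites grown in NIH/3T3 mouse fibroblasts as host cells; luminescent beta-galactosidase reporter signal from transgenic T. cruzi replicating inside host cells; inhibitors lower the luminescence signal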
[10] = NIH3T3 cell viability loss – ATP luminescence, mouse fibroblasts, counter-screen, dose response (AID 2010); format: functional, cell-based;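 further: cells exposed to compound for about 90 hours before reading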
[11] = molecular target: T2, Ubiquitin-conjugating enzyme E2 N (Homo sapiens, UniProt P61088); format: functional;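 further: Dose-response confirmation in a TR-FRET assay detecting UBC13-driven polyubiquitin chain formation, inhibition measured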
T2 sequence (P61088 whole entry): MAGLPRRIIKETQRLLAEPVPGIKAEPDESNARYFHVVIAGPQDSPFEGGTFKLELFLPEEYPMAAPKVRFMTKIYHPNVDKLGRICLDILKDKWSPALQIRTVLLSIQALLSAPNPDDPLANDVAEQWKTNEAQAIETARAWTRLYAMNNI

[12] = molecular target: T3, Apoptotic protease-activating factor 1 (Homo sapiens, UniProt O14727); format: functional
T3 sequence (O14727 whole entry): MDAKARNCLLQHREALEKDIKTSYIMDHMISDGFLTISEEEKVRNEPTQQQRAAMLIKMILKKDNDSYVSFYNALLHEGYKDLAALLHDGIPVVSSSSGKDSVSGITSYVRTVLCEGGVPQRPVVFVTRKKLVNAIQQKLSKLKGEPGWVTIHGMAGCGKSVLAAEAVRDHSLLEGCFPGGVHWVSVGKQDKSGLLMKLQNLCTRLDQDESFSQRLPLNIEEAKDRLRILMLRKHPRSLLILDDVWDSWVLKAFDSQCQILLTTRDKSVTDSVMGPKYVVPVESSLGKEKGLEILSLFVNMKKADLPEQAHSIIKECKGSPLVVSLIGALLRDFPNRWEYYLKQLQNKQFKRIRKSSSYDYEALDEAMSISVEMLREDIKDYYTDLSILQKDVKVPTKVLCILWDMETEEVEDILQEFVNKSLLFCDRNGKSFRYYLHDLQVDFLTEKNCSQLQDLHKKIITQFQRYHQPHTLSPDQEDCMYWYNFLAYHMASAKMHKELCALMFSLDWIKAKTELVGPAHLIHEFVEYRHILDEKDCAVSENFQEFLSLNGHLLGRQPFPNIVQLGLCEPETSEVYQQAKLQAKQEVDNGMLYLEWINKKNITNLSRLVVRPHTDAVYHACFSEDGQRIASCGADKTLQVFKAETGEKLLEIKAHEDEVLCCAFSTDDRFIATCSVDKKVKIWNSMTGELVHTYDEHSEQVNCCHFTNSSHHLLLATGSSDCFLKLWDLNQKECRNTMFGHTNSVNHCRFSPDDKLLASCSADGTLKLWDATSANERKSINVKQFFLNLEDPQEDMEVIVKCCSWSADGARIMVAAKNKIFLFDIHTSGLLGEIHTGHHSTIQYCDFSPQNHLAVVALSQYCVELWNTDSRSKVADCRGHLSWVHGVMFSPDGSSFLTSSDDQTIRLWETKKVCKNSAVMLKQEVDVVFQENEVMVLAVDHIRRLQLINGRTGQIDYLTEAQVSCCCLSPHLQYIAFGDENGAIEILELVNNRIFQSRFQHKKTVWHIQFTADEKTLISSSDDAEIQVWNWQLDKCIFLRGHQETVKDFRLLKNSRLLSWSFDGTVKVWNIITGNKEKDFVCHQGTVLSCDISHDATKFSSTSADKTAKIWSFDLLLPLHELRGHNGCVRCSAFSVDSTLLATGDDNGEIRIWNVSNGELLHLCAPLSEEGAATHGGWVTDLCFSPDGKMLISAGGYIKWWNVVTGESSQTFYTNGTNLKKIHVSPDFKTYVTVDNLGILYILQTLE

[13] = molecular target: T4, Histone-lysine N-methyltransferase NSD2 (Homo sapiens, UniProt O96028); format: biochemical
T4 sequence (O96028 whole entry): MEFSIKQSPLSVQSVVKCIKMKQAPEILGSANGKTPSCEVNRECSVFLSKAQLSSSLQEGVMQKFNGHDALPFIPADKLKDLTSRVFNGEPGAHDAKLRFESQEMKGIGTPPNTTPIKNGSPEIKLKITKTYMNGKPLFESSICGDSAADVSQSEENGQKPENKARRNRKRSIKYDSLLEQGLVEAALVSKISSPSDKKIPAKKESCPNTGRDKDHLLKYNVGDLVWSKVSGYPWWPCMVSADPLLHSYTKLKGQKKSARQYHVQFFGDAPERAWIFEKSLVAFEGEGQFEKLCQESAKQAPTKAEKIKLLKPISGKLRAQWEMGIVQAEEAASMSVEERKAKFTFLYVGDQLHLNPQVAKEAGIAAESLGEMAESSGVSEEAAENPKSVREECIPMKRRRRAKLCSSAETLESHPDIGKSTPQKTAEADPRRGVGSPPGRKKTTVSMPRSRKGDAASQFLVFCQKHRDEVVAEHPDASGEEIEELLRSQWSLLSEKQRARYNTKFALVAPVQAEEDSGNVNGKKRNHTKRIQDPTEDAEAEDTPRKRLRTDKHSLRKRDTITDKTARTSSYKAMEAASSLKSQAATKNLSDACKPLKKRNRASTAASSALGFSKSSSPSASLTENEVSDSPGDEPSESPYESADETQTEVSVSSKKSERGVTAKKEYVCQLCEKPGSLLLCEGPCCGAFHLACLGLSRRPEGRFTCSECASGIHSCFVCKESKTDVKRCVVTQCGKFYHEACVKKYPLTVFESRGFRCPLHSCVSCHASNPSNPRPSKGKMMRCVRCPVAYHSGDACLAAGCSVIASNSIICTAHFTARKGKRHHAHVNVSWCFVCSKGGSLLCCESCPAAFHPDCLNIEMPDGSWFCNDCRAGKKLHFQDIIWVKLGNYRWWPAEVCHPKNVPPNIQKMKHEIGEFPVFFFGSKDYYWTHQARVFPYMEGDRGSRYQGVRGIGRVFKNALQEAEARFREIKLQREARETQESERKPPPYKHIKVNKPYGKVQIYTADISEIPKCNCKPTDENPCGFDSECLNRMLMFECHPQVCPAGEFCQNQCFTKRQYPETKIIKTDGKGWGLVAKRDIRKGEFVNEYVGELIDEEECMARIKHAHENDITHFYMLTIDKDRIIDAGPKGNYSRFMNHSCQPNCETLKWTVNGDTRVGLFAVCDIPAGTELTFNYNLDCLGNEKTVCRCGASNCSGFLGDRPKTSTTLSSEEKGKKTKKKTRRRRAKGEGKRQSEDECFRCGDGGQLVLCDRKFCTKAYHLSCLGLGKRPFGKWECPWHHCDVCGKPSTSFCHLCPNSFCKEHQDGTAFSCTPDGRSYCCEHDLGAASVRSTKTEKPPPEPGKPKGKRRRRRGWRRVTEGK

Paired box protein Pax-8 = Paired box protein Pax-8 (Homo sapiens, UniProt Q06710); assay: PAX8 transcriptional activity inhibition in RMG-I – RMG-I cells, luciferase, cherry-pick, dose response (AID 687027); format: functional, cell-based;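 further: luciferase reporter driven by Pax8 target thyroperoxidase promoter measured by SteadyGlo luminescence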
Paired box protein Pax-8, sequence (Q06710 whole entry): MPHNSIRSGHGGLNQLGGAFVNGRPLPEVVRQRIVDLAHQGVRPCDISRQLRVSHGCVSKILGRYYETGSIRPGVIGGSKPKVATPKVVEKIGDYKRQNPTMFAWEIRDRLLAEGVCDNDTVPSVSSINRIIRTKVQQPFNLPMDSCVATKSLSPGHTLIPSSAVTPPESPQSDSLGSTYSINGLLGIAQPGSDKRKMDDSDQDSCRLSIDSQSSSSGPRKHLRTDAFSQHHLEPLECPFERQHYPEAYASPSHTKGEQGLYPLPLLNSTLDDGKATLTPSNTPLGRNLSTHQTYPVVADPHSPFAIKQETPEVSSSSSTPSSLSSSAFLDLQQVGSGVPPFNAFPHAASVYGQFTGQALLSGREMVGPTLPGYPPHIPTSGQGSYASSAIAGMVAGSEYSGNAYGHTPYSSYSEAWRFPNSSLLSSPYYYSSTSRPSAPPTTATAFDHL

T1 sequence (P49327 whole entry): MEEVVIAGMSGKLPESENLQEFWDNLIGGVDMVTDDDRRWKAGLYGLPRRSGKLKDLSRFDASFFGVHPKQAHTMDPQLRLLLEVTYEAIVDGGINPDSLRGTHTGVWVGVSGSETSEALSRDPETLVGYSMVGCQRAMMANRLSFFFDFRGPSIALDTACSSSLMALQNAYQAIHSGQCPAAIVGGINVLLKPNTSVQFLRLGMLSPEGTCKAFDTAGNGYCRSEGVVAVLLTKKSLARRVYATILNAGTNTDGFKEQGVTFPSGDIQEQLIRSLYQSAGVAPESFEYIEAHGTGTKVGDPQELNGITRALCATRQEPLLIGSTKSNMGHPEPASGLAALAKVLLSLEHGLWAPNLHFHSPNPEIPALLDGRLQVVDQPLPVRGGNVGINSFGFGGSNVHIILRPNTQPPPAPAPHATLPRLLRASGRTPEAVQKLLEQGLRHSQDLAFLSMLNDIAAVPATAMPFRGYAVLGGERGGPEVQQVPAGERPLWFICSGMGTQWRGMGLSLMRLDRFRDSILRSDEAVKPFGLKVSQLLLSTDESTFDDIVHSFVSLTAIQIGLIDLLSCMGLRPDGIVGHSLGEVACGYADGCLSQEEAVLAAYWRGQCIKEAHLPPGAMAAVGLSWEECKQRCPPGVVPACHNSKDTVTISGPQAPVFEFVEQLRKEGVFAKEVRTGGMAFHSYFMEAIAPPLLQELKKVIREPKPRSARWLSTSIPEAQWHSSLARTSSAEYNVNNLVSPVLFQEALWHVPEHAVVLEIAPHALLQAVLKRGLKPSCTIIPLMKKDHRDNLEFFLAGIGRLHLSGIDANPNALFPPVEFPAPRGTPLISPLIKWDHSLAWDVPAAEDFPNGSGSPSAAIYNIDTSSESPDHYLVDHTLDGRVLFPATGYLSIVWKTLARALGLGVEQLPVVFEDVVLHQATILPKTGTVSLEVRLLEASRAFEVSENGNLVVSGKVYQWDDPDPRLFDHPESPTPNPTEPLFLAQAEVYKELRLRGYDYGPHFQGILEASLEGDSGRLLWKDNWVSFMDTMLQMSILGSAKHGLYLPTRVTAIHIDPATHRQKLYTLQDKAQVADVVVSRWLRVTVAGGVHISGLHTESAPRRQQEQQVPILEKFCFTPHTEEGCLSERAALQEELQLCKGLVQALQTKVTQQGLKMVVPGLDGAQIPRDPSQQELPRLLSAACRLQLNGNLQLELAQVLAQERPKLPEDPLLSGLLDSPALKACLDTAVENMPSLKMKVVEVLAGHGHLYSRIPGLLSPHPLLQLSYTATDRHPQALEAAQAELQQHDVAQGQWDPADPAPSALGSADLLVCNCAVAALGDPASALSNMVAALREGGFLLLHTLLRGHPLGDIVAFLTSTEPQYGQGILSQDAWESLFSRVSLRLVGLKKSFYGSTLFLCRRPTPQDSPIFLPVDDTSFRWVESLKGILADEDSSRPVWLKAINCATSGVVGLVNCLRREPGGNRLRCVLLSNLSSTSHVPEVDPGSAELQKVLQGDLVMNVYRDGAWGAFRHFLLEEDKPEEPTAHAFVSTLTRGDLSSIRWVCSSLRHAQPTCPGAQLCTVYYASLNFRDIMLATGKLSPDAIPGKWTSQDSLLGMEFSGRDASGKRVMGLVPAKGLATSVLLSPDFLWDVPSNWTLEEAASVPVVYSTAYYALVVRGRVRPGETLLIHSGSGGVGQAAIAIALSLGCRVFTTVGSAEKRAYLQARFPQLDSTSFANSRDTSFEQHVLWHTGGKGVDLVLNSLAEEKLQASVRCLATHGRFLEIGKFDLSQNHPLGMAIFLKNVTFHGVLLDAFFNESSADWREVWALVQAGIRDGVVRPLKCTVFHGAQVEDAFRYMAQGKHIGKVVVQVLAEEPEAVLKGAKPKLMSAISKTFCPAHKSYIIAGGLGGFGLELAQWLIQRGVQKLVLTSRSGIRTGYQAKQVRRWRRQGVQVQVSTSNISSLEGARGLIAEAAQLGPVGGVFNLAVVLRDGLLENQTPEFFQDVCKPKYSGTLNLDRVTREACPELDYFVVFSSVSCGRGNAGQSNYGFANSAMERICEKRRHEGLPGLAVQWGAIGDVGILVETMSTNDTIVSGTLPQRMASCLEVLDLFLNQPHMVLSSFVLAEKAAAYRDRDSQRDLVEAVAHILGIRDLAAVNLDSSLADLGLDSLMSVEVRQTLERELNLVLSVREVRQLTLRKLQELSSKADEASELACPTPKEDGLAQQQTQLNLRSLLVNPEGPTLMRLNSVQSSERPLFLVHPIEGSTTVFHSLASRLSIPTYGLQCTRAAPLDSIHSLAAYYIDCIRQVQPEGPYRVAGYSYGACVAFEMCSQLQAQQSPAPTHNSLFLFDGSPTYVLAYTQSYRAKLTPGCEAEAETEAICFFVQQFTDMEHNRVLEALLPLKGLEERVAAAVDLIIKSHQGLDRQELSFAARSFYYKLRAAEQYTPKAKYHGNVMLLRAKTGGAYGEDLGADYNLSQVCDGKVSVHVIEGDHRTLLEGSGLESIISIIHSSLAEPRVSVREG

CC(C)n1c(CN(C)Cc2ccccc2)nc2c1c(=O)n(C)c(=O)n2C
EC50 [1]: 43 µM (active) | EC50 [2]: > 120 µM (not active) | EC50 [3]: > 120 µM (not active) | IC50 [4]: > 80 µM (inactive)

COc1cc(/C=C/C(=O)Oc2ccc(NC(C)=O)cc2)ccc1C(=O)O/C=C/c1ccccc1
GI50 (P388/ADR): 8.02 µM (inactive) | GI50 (SN12K1): > 100 µM (inactive) | GI50 (P388): 18.8 µM (inactive)

N[C@H](C(=O)O)[C@@H]1CC(Cl)=NO1 [ACIVICIN]
GI50 (P388/ADR): 0.471 µM (active) | GI50 (SN12K1): 1.13 µM (inactive) | GI50 (P388): 0.242 µM (active)

COCCCNC(=O)C(=O)Nc1ccc2c(c1)N(S(=O)(=O)c1cccs1)CCC2
EC50 [1]: 4.45 µM (inconclusive) | EC50 [2]: 6.86 µM (active) | EC50 [3]: 0.419 µM (active) | IC50 [4]: > 80 µM (inactive)

CNC=O
GI50 (P388/ADR): > 10000 µM (inactive) | GI50 (SN12K1): > 10000 µM (inactive) | GI50 (P388): > 5620 µM (inactive)

Cc1ccc(-c2ccc3c(c2)O[C@@H](CN(C)Cc2ccncc2)[C@H](C)CN([C@H](C)CO)S3(=O)=O)cc1
AC50 [5]: 10.2 µM (active) | AC50 [6]: 14.2 µM (active)

C[C@H](NC(=O)c1[nH]cnc1C(=O)N[C@@H](CCCCNC(=O)OC(C)(C)C)C(=O)OC(C)(C)C)C(=O)OC(C)(C)C
IC50 (Fatty acid synthase [7]): 2.95 µM (active) | IC50 (Fatty acid synthase [8]): 2.6 µM (active)

Cc1c(Cl)c([N+](=O)[O-])nn1CCCC(=O)N(Cc1ccccc1)Cc1ccccc1
EC50 [9]: 1.86 µM (active) | EC50 [10]: 29.7 µM (active) | IC50 (Fatty acid synthase [7]): 10 µM (active) | IC50 (Fatty acid synthase [8]): 11 µM (active)

O=C(NCc1ccc2c(c1)OCO2)c1ccc(C2SCC(=O)N2Cc2ccco2)cc1 (centres undefined)
IC50 (Fatty acid synthase [7]): 8.5 µM (active) | IC50 (Fatty acid synthase [8]): 5.95 µM (active)

C=C1C(C)C2C(Cc3ccccc3)NC(=O)C23OC(=O)/C=C\CC(=O)CCC(C)C/C=C/C3C1O (centres undefined)
GI50 (P388/ADR): 0.224 µM (active) | GI50 (SN12K1): 0.444 µM (active) | GI50 (P388): 0.0552 µM (active)

CO[C@H]1Nc2c(ccc(C)c2O)C(=O)N2C=C(/C=C/C(N)=O)C[C@@H]12 [ANTHRAMYCIN METHYL ETHER]
GI50 (P388/ADR): 0.101 µM (active) | GI50 (SN12K1): 0.0197 µM (active) | GI50 (P388): 0.0436 µM (active)

C[C@H](CO)N1C[C@H](C)[C@@H](CN(C)C(=O)Nc2cccc(C(F)(F)F)c2)OCc2ccccc2-c2ccccc2C1=O
AC50 [5]: < 0.285 µM (active) | AC50 [6]: 0.346 µM (active)

Cc1cccc(OCC(=O)N/N=C/c2cc([N+](=O)[O-])ccc2N2CCOCC2)c1
IC50 (Fatty acid synthase [7]): 9.22 µM (active) | IC50 (Fatty acid synthase [8]): 8.84 µM (active)

COc1ccccc1OCCNC(=O)c1cccc(S(=O)(=O)N2CCN(Cc3ccccc3)CC2)c1
IC50 [11]: > 20 µM (inactive) | IC50 [12]: > 100 µM (inactive)

CCOC(=O)C1CCCN(c2nc3c(C)cccn3c(=O)c2/C=C(\C#N)C(=O)NCc2ccco2)C1 (centres undefined)
IC50 (Fatty acid synthase [7]): 16.2 µM (active) | IC50 (Fatty acid synthase [8]): 8.23 µM (active)

O=C1Sc2sc(=S)sc2SC1c1ccccc1 (centres undefined)
GI50 (P388/ADR): 23.7 µM (inactive) | GI50 (SN12K1): 25.1 µM (inactive) | GI50 (P388): 22.5 µM (inactive)

OC[C@H]1O[C@@H](n2cnc3cncnc32)[C@H](O)[C@@H]1O [NEBULARINE]
GI50 (P388/ADR): 0.305 µM (active) | GI50 (SN12K1): 1.48 µM (inactive) | GI50 (P388): 0.321 µM (active)

CN(C)c1cc(N/N=C/c2ccccc2C(F)(F)F)nc(N(C)C)n1
IC50 [12]: 5.07 µM (active)

Cc1sc(N2CCN(S(=O)(=O)c3ccc4c(c3)NC(=O)CO4)CC2)nc1-c1ccccc1
IC50 (Fatty acid synthase [7]): 4.15 µM (active) | IC50 (Fatty acid synthase [8]): 4.04 µM (active)

COC(=O)C1=C(C)N(Cc2ccccc2)C(NCCc2c[nH]c3ccccc23)=N[C@H]1c1cccc(C(F)(F)F)c1
IC50 [11]: > 20 µM (inactive) | IC50 [12]: 71 µM (active)

CCN(CC)CCCN(Cc1cc2cc3c(cc2nc1O)OCO3)C(S)=NCCCOC
AC50 [13]: > 20 µM (inactive)

COc1ccc2[nH]c3c(c2c1)CCN1C(=O)C(CC(=O)NC(C)(C)C)C[C@H](C(=O)N2CCOCC2)[C@@]31CCC1CCCC1 (some centres undefined)
IC50 (Fatty acid synthase [7]): 8.32 µM (active) | IC50 (Fatty acid synthase [8]): 7.48 µM (active)

CC(=O)OC1CCC2(C)C(CCC3C2CCC2(C)C(c4ccc(=O)oc4)C(OC(C)=O)CC32O)C1 (centres undefined)
GI50 (P388/ADR): 40.9 µM (inactive) | GI50 (SN12K1): 0.0144 µM (active) | GI50 (P388): 14.6 µM (inactive)

COc1ccccc1/N=C(\C)C1=C(O)CC(c2ccccc2)CC1=O (centres undefined)
IC50 [4]: > 80 µM (inactive)

CCOC(=O)N/N=C/c1c(C)nn(-c2cccc(C(F)(F)F)c2)c1Cl
IC50 [4]: 69.6 µM (inactive)

C=C(C)c1nc(Oc2ccccc2)nc(Oc2ccccc2)n1
GI50 (P388/ADR): 0.824 µM (active) | GI50 (SN12K1): 3.35 µM (inactive) | GI50 (P388): 1.17 µM (inactive) | AC50 (Paired box protein Pax-8): 3.04 µM (active)
